Assay results published in patent US6355633B1, “Aryl sulfonic acids and derivatives as FSH antagonists” (American Home Products Corporation, priority 1999, dated 2002).

target: T1, FSH receptor (Homo sapiens, UniProt P23945); assay: FSH Receptor Radioligand Membrane Binding Standard Pharmacological Test Procedure; set-up: expressed in transfected cells; conditions: [125I]FSH binding to membranes of CHO cells stably transfected with the human FSH receptor
T1 sequence (P23945 18-695): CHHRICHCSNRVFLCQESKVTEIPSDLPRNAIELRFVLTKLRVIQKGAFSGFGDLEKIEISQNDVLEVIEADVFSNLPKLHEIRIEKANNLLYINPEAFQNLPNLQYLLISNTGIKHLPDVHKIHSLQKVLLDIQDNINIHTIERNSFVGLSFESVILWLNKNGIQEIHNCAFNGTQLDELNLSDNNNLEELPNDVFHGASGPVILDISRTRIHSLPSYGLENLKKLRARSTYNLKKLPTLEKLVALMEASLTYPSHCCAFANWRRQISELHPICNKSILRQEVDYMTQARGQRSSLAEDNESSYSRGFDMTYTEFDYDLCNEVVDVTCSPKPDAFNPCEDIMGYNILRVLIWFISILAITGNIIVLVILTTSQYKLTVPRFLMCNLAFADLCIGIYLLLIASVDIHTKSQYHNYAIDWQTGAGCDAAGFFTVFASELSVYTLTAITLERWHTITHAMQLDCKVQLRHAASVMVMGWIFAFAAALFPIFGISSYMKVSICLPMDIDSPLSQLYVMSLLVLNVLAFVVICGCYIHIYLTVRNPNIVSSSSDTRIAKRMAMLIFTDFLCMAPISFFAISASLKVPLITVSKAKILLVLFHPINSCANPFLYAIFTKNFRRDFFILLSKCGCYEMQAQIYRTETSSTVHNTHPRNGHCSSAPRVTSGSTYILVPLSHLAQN
Procedure: FSH Receptor Radioligand Membrane Binding Standard Pharmacological Test Procedure
Membrane Source: Chinese hamster ovarian cells stably transfected with the human FSH receptor were cultured (Ultra CHO medium containing 1% fetal bovine serum and 200 μg/mL G418) in and harvested. Cells were collected by centrifugation and resulting cell pellets were frozen and stored at −70° C.
Membrane Receptor Preparation: Frozen cell pellets were weighed and resuspended in binding buffer to a final concentration of 30 mg wet weight/mL. Cell suspension for each pellet was homogenized using a Tempest homogenizer (setting=1; 5 strokes; VirTis, Gardiner, N.Y.). Cell homogenates were pooled and 35 mL aliquots were transferred to 50-mL polypropylene copolymer centrifuge tubes (Nalgene cat. #3110-0500). Tubes were spun at 12,000 rpm (SS34 rotor) for 12 min at 4° C. Resulting supernatant fractions were discarded and pellets were stored at −70° C. until use. On the day of the procedure, 35 mL binding buffer was added to each tube (35 mL membrane suspension was sufficient for three 96-well plates). The membrane pellet was dispersed by trituration using a pipet. The resulting suspension wass homogenized using a Tempest homogenizer (3 strokes at setting=1).
Receptor Binding Test procedure: Membrane homogenate (100 μl) was added to each well of a 96-well microtiter plate (Falcon # 3077). All reactions were tested in triplicate. Test compound solutions (50 μl) were added to the designated wells. Total bound counts were determined by adding 50 μl binding buffer containing 4% DMSO to the designated wells. […] Plates were pre-incubated for 15 min at room temperature on shaking platform (setting=3). After preincubation [^125I]FSH (50 μl) was added to each well and plates were incubated for 2 h at room temperature on shaking platform (setting=3). The reaction was terminated by transfer of the membrane preparation to glass fiber filters (Blue Mat #11740; 102×256 mm; Skatron Instruments, Sterling, Va.) that had been pretreated with 1% BSA in wash buffer for at least 30 min, but not longer than 1 h using a 96-well microtiter vacuum harvester (Skatron Instruments). The membrane preparation was washed with 5 cycles of ice-cold wash buffer (200 μl/well/cycle) followed by a pulse wash of 3 cycles (100 μl/well/cycle). The total wash volume per well was 1.3 mL. The filters were dried by a 10 sec aspiration. Disks corresponding to each well of the microtiter plate were punched out of the filter mat into 12×75 mm polypropylene tubes. The radioactivity present on each of the disks was measured using a gamma counter.
An FSH dose response curve (0.001, 0.01, 0.1, 1, 10, and 100 nM) was generated for each binding procedure to monitor procedure to procedrue variability.
FSH Receptor Radioligand Membrane Binding Procedure Buffers and Reagents
Binding buffer is prepared in 11 volumes containing Trizma-HCl, MgCl2, CaCl2 and sodium azide, the pH was adjusted to 7.2 with NaOH, and stored at 4° C. until use. BSA was weighed out on the day of the procedure and added to the amount of buffer required for the procedure (usually 150 mL). The protease inhibitors were prepared as 1 mg/mL stocks (aprotinin, leupeptin, and phosphoramidon were prepared in binding buffer without BSA and protease inhibitors; pepstatin and PMSF were prepared in methanol), stored in 1 mL aliquots at −70° C., and added to the binding buffer on the day of the procedure.
Wash buffer was prepared containing Trizma-HCl, MgCl2 and EDTA, the pH was adjusted to 7.2 with NaOH, and stored at 4° C.
Filter Soak Buffer (pH 7.2)
BSA was weighed out on the day of the procedure and added to 300 mL of wash buffer. The filter soak buffer was used for two procedures before being discarded.
A portion of the stock solution was diluted in binding buffer to a concentration of 200 pM.
FSH Solution for Determining Non-specific Binding: Purified human FSH was prepared as a 100 μM solution in binding buffer without protease inhibitors. […]

| Compound | IC50 |
| --- | --- |
| COc1ccc(C(=O)Nc2ccc(/C=C/c3ccc(NC(=O)c4ccc(OC)c(S(=O)(=O)N5CCCCC5)c4)cc3S(=O)(=O)O)c(S(=O)(=O)O)c2)cc1S(=O)(=O)N1CCCCC1 [Example 30h, 2,2′-[(E)-1,2-Ethenediyl]bis[5-[[4-methoxy-3-(1-piperidinylsulfonyl)benzoyl]amino]benzenesulfonic Acid]] | 7.3 µM |
| O=C(O)CS(=O)(=O)c1cccc(C(=O)Nc2ccc(C=Cc3ccc(NC(=O)c4cccc(S(=O)(=O)CC(=O)O)c4)cc3S(=O)(=O)O)c(S(=O)(=O)O)c2)c1 [Example 36b, [3-(4-{2-[4-(3-Carboxymethanesulfonyl-benzoylamino)-2-sulfo-phenyl]-vinyl}-3-sulfo-phenylcarbamoyl)-benzenesulfonyl]-acetic Acid] | 21 µM |
| O=C(CS(=O)(=O)c1cccc(C(=O)Nc2ccc(/C=C/c3ccc(NC(=O)c4cccc(S(=O)(=O)CC(=O)NCCO)c4)cc3S(=O)(=O)O)c(S(=O)(=O)O)c2)c1)NCCO [Example 37c, 5-[[3-[[2-[(2-Hydroxyethyl)amino]-2-oxoethyl]sulfonyl]benzoyl]amino]-2-[(E)-2-[4-[[3-[[2-[(2-hydroxyethyl)amino]-2-oxoethyl]sulfonyl]benzoyl]amino]-2-sulfo-phenyl]ethenyl]benzenesulfonic Acid] | 6.7 µM |
| NC(=O)CS(=O)(=O)c1cccc(C(=O)Nc2ccc(/C=C/c3ccc(NC(=O)c4cccc(S(=O)(=O)CC(N)=O)c4)cc3S(=O)(=O)O)c(S(=O)(=O)O)c2)c1 [Example 37d, 5-[[3-[(2-Amino-2-oxoethyl)sulfonyl]benzoyl]amino]-2-[(E)-2-[4-[[3-[(2-amino-2-oxoethyl)sulfonyl]benzoyl]amino]-2-sulfophenyl]ethenyl]-benzenesulfonic Acid] | 4.3 µM |
| COCCOc1ccc(C(=O)Nc2ccc(/C=C/c3ccc(NC(=O)c4ccc(S(C)(=O)=O)cc4)cc3S(=O)(=O)O)c(S(=O)(=O)O)c2)cc1 [Example 40a, 5-[[4-(2-Methoxyethoxy)benzoyl]amino]-2-[(E)-2-[4-[[4-(methanesulfonyl)benzoyl]amino]-2-sulfophenyl]ethenyl]benzenesulfonic Acid] | 6.2 µM |
| CS(=O)(=O)Cc1ccc(C(=O)Nc2ccc(/C=C/c3ccc(NC(=O)c4ccc(S(C)(=O)=O)cc4)cc3S(=O)(=O)O)c(S(=O)(=O)O)c2)cc1 [Example 40b, 5-[[4-(Methylsulfonyl)benzoyl]amino]-2-[(E)-2-[4-[[4-[(methylsulfonyl)methyl]benzoyl]amino]-2-sulfophenyl]ethenyl]benzenesulfonic Acid] | 5.2 µM |
| COc1ccc(C(=O)Nc2ccc(CCc3ccc(NC(=O)c4ccc(OC)c(S(=O)(=O)N5CCS(=O)(=O)CC5)c4)cc3S(=O)(=O)O)c(S(=O)(=O)O)c2)cc1S(=O)(=O)N1CCS(=O)(=O)CC1 [Example 43c, 2,2′-(1,2-Ethanediyl)bis[5-[[3-[(1,1-dioxido-4-thiomorpholinyl)sulfonyl]-4-methoxybenzoyl]amino]benzenesulfonic Acid]] | 4.5 µM |
| CS(=O)(=O)c1ccc(C(=O)Nc2ccc(CCc3ccc(NC(=O)c4ccc(S(C)(=O)=O)cc4)cc3S(=O)(=O)O)c(S(=O)(=O)O)c2)cc1 [Example 43e] | 4.3 µM |
| COc1ccc(C(=O)Nc2ccc(CSCc3ccc(NC(=O)c4ccc(OC)c(S(=O)(=O)N5CCOCC5)c4)cc3S(=O)(=O)O)c(S(=O)(=O)O)c2)cc1S(=O)(=O)N1CCOCC1 [Example 50a, 2,2′-[Thiobis(methylene)]bis[5-[[4-methoxy-3-(4-morpholinylsulfonyl)benzoyl]amino]benzenesulfonic Acid]] | 34 µM |
| COc1ccc(C(=O)Nc2ccc(CS(=O)(=O)Cc3ccc(NC(=O)c4ccc(OC)c(S(=O)(=O)N5CCOCC5)c4)cc3S(=O)(=O)O)c(S(=O)(=O)O)c2)cc1S(=O)(=O)N1CCOCC1 [Example 50b, 2,2′-[Sulfonylbis(methylene)]bis[5-[[4-methoxy-3-(4-morpholinylsulfonyl)benzoyl]amino]benzenesulfonic acid]] | 41 µM |
| CSc1ccc(C(=O)Nc2ccc(C=Cc3ccc(NC(=O)c4ccc(SC)c(S(=O)(=O)N5CCOCC5)c4)cc3S(=O)(=O)O)cc2)cc1S(=O)(=O)N1CCOCC1 [Example 59, 5-[4-Methylsulfanyl-3-(morpholine-4-sulfonyl)-benzoylamino]-2-(2-{[4-methylsulfanyl-3-(morpholine-4-sulfonyl)-benzoylamino]-phenyl}-vinyl)-benzenesulfonic Acid] | 16 µM |

target: T1, FSH receptor; assay: In Vitro Bio-test Procedure of Agonists and Antagonists to the FSH Receptor (cAMP accumulation in CHO-3D2 cells); format: cell-based; set-up: expressed in transfected cells; host or cells: CHO-3D2 cells; conditions: not given
Procedure: In Vitro Bio-test Procedure of Agonists and Antagonists to the FSH Receptor
The compounds were subsequently diluted in sterile procedure medium (Optimem (Gibco/BRL, Grand Island, N.Y.)/0.1% BSA) prior to use in the bio-procedure.
Preparation of CHO-3D2 Cells; CHO-3D2 cells were plated into 96-well Nunc tissue culture plates at a density of 30,000 cells/well in DMEM/F12 medium (Gibco/BRL, Grand Island, N.Y.) supplemented with 5% Fetal Bovine Serum (Hyclone, Fetal Clone II), 2 mM L-glutamine and penicillin/streptomycin (100 U/mL). Cells were plated one day prior to performing the bio-procedure.
Procedure: On the day of procedure, the wells were washed two times with 100 ul/well of pre-warmed (37 deg C.) procedure medium. After aspirating the second wash, an additional 100 ul of procedure medium was added to each well and the cells pre-incubated for 30-45 minutes at 37 deg C. In a humidified incubator with 5%CO2/95% air. The cells were then challenged with varying dilutions of the test substance(s) in a 50 ul total incubation volume in procedure medium for 30 minutes at 37 deg C. in the humidified incubator. The challenge was terminated by the addition of 50 ul of 0.2 N HCl to each well. CAMP accumulation in the medium was measured by radioimmunoassay.
Test Groups: In the 96-well format, the plate is organized into 12 columns each containing 8 rows of wells. The plate was split in half to test a single compound in both agonist and antagonist mode on the same plate.
For agonist mode, compounds were tested using 5 different concentrations in a dose-response paradigm using one column as a control (challenge medium alone) in agonist mode.
The 96-well format allowed for the capability to test 4 columns of compound, using one of the remaining columns for negative control (challenge medium alone) and the other remaining column for ampositive control (ED20 of FSH alone).
The doses chosen to test each compound were extrapolated from the initial screening process (receptor binding data). Along with the test compounds, FSH was run in agonist mode using doses ranging from 0.1 ng/mL-1000 ng/mL as a postive control. Cytotoxicity of the compounds were screened by treating cells with the highest concentration of each compound used in the cAMP procedure for 30 minutes followed by washing of the cells 2 times with 100 ul PBS. The cells were then incubated for 5 min at 37 deg C. in the presence of 50 ug/mL Fluorescein diacetate and 20 ug/mL Propidium iodide in 100 ul PBS. The cells were washed two times with 100 ul PBS followed by examination of the cells under a fluorescence microscope using a 490 nm filter. Viable cells stained green throughout, while dead cells had red fluorescent nuclei.
Analysis of Results: cAMP accumulation was expressed as fmol/mL. […] Data were analyzed statistically by analysis of variance and significant differences between treatments and control determined by Dunnett's test. In antagonist mode, a Duncan's test was used.
Reference Compounds: Test compounds were compared to the effect of purified or recombinant human FSH.

| Compound | IC50 |
| --- | --- |
| COc1ccc(C(=O)Nc2ccc(/C=C/c3ccc(NC(=O)c4ccc(OC)c(S(=O)(=O)N5CCCCC5)c4)cc3S(=O)(=O)O)c(S(=O)(=O)O)c2)cc1S(=O)(=O)N1CCCCC1 [Example 30h, 2,2′-[(E)-1,2-Ethenediyl]bis[5-[[4-methoxy-3-(1-piperidinylsulfonyl)benzoyl]amino]benzenesulfonic Acid]] | 8.1 µM |
